The source of these data is patent publication US20210223248A1 (priority 2018, published 2021).

Values joined by “and” are separate entries in the source; they are usually repeats but may differ in a detail not shown here. Identical values can stand only once.

Assay [1] relates to relapsed and/or refractory CD19+ B-ALL. The format is in vivo, human.
The subject of assay [2] is relapsed and/or refractory CD19+ NHL. The following applies: human, in vivo.

For the compound “cyclophosphamide and fludarabine [Cy/Flu]”, in assay [1] (human, in vivo), the “Estimate, univariate association with Disease-Free Survival” value is listed as 0.2967; the “Estimate, univariate association with Overall Survival” value is reported as 0.4349; the “Exp (Coef) = hazard ratio for DFS” value turned out to be 0.2490; the “Exp (−Coef) for DFS” value is given as 4.0154. Further, the “Hazard Ratio (95% CI) for DFS” value in assay [1] (human, in vivo) is 0.2777 (0.1095-0.7042) and 0.2794 (0.1109-0.7042). Also, in assay [2], the “HR (95% CI) for PFS” value is 1.92 (0.99-3.72) and the “HR for PFS” value is on record as 4.266.
As for `Nc1nc(F)nc2c1ncn2[C@@H]1O[C@H](CO)[C@@H](O)[C@@H]1O` [Fludarabine, fludarabine], in assay [1] (univariate, fludarabine added to cyclophosphamide-based lymphodepletion (Y)), the “Odds Ratio (95% CI) for MRD-negative CR” value was 0.50 (0.03-3.31).
